{"source": "patent US20200003756A1", "about": "“METHOD FOR OBSERVING SEBACEOUS GLAND” (MANDOM CORPORATION, priority 2017, published 2020)", "tested_on": "sebaceous-gland-structure A", "test": "Observation of inside of sebaceous-gland-structure, lipid droplets of sebum in outermost layer / degree of progress of sebum production (Example 2)", "assay_type": "cell-based", "details": "test sample B, linoleic acid 1×10^−4 M, 24 hours (Experiment number 8); FIGS. 8 and 10", "procedure": "Linoleic acid and linoleic acid receptor antagonist (manufactured by Abeam plc, trade name: GSK-3787) as test substances were added to the mixed medium obtained in Preparation Example 1 so that the concentration of linoleic acid was 1×10^−4 M and so that the concentration of the test substance was 1 μM, to obtain a test sample D.\nOne milliliter of the test sample A was added to each well of a 24-well plate. Next, the sebaceous-gland-structure A obtained in Preparation Example 6 was cultured in a suspended state in the test sample A in each well of the 24-well plate in the presence of 5% by volume carbon dioxide at 37° C. for 24 hours, to contact the sebaceous-gland-structure A with the test sample A (Experiment number 7). […]\nFurthermore, the state of each cell of 40 cells in the outermost layer shown in each figure was evaluated by using the results shown in FIGS. 7 to 9 on the basis of the evaluation criterion described below. […]\nNext, the degree of progress of sebum production in the sebaceous gland cell contained in the sebaceous-gland-structure A was evaluated by calculating the mean value of the points in the 40 cells in the outermost layer in FIGS. 7 to 9. […]", "data": [{"molecule": "CCCCC/C=C\\C/C=C\\CCCCCCCC(=O)O", "note": "[linoleic acid, Linoleic acid]", "values": [{"measurement": "lipid droplets of sebum in the outermost layer of the sebaceous-gland-structure A", "value": "lipid droplets of sebum were found"}]}]}
